Values joined by “and” are separate entries in the source; they are usually repeats but may differ in a detail not shown here. Equal entries are not always repeated. Toxic doses and inconclusive results are not listed. The calls were made as follows: active = survival T/C of 150% or more; inactive = T/C below 125% in these data.
Tested on: P388 leukemia ip, CD2F1 mice, survival T/C
Assay: NCI In Vivo Anticancer Drug Screen. Data for tumor model P388 Leukemia (intraperitoneal) in CD2F1 (CDF1) mice
Details: endpoint: median survival time, higher = longer survival
How it was run: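 Mice carrying the transplanted tumor received test compound or vehicle. Survival was recorded in each group, and the value is the treated-group measurement divided by that of the vehicle-treated control group.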

[1] = dose: 50.0 mg/kg/injection, schedule: Q01DX005 (ip), vehicle: saline
[2] = dose: 100.0 mg/kg/injection, schedule: Q01DX005 (ip), vehicle: saline
[3] = dose: 200.0 mg/kg/injection, schedule: Q01DX005 (ip), vehicle: saline
[4] = dose: 50.0 mg/kg/injection, schedule: Q01DX005 (ip), vehicle: saline with Tween-80
[5] = dose: 12.5 mg/kg/injection, schedule: Q01DX009 (ip), vehicle: saline
[6] = dose: 50.0 mg/kg/injection, schedule: Q01DX009 (ip), vehicle: saline
[7] = dose: 25.0 mg/kg/injection, schedule: Q01DX005 (ip), vehicle: water
[8] = dose: 50.0 mg/kg/injection, schedule: Q01DX005 (ip), vehicle: water
[9] = dose: 200.0 mg/kg/injection, schedule: Q01DX005 (ip), vehicle: water
[10] = dose: 100.0 mg/kg/injection, schedule: Q01DX005 (ip), vehicle: saline with Tween-80
[11] = dose: 200.0 mg/kg/injection, schedule: Q01DX005 (ip), vehicle: saline with Tween-80
[12] = dose: 12.5 mg/kg/injection, schedule: Q01DX005 (ip), vehicle: Klucel (hydroxypropylcellulose) (HPC)
[13] = dose: 25.0 mg/kg/injection, schedule: Q01DX005 (ip), vehicle: Klucel (hydroxypropylcellulose) (HPC)
[14] = dose: 50.0 mg/kg/injection, schedule: Q01DX005 (ip), vehicle: Klucel (hydroxypropylcellulose) (HPC)
[15] = dose: 60.0 mg/kg/injection, schedule: Q01DX005 (ip), vehicle: saline with Tween-80
[16] = dose: 120.0 mg/kg/injection, schedule: Q01DX005 (ip), vehicle: saline with Tween-80
[17] = dose: 240.0 mg/kg/injection, schedule: Q01DX005 (ip), vehicle: saline with Tween-80
[18] = dose: 100.0 mg/kg/injection, schedule: Q01DX009 (ip), vehicle: saline
[19] = dose: 200.0 mg/kg/injection, schedule: Q01DX009 (ip), vehicle: saline
[20] = dose: 100.0 mg/kg/injection, schedule: Q01DX005 (ip), vehicle: Klucel (hydroxypropylcellulose) (HPC)
[21] = dose: 200.0 mg/kg/injection, schedule: Q01DX005 (ip), vehicle: Klucel (hydroxypropylcellulose) (HPC)
[22] = dose: 50.0 mg/kg/injection, schedule: Q01DX009 (ip), vehicle: Klucel (hydroxypropylcellulose) (HPC)
[23] = dose: 100.0 mg/kg/injection, schedule: Q01DX009 (ip), vehicle: Klucel (hydroxypropylcellulose) (HPC)
[24] = dose: 200.0 mg/kg/injection, schedule: Q01DX009 (ip), vehicle: Klucel (hydroxypropylcellulose) (HPC)
[25] = dose: 50.0 mg/kg/injection, schedule: Q01DX009 (ip), vehicle: saline with Tween-80
[26] = dose: 100.0 mg/kg/injection, schedule: Q01DX009 (ip), vehicle: saline with Tween-80

Measured: T/C

COC(=O)C1C(Sc2ccccc2)CCN1C(C)=O (stereo not given)
inactive: [1] 88 % of control | [2] 88 % of control | [3] 88 % of control

Cc1ncc(N)c2c1OC(C)(C)OC2
inactive: dose: 12.5 mg/kg/injection, schedule: Q01DX005 (ip), vehicle: saline with Tween-80 102 % of control | dose: 25.0 mg/kg/injection, schedule: Q01DX005 (ip), vehicle: saline with Tween-80 103 % of control | [4] 99 % of control and 101 % of control

N=C(N)C1CC1
inactive: [5] 100 % of control | dose: 25.0 mg/kg/injection, schedule: Q01DX009 (ip), vehicle: saline 100 % of control | [6] 102 % of control

CC(C)C(O)(C(=O)OCC1=CC[N+]2(C)CCC(O)C12)C(C)O (stereo not given)
inactive: [7] 103 % of control | [8] 108 % of control | dose: 100.0 mg/kg/injection, schedule: Q01DX005 (ip), vehicle: water 103 % of control | [9] 100 % of control

N=C(N)c1ccc(O)cc1
inactive: [1] 102 % of control | [2] 111 % of control | [3] 112 % of control

OCC(O)C(O)CO (stereo not given)
inactive: [4] 98 % of control | [10] 104 % of control | [11] 104 % of control

Cc1cc(N/N=C/c2ccc(Cl)cc2)c2cc3c(cc2n1)OCO3
inactive: [12] 98 % of control | [13] 103 % of control | [14] 102 % of control and 95 % of control

CC(C)CC(N)C(=O)NC(CC(C)C)P(=O)(O)O (stereo not given)
inactive: [15] 106 % of control | [16] 101 % of control | [17] 104 % of control

O=C(Nc1ccc(F)cc1)/C(Cl)=C1/Sc2ccccc2NC1=O
inactive: dose: 100.0 mg/kg/injection, schedule: Q01DX001 (ip), vehicle: saline with Tween-80 102 % of control | dose: 200.0 mg/kg/injection, schedule: Q01DX001 (ip), vehicle: saline with Tween-80 94 % of control | dose: 400.0 mg/kg/injection, schedule: Q01DX001 (ip), vehicle: saline with Tween-80 94 % of control

CC1(C)CC(N2CCOCC2)=CC(=NCc2ccccc2)N1
inactive: [12] 107 % of control | [13] 99 % of control | [14] 100 % of control and 101 % of control

O=N[O-].O=N[O-].[NH2-].[NH2-].[NH2-].[NH2-].[Ni]
inactive: dose: 6.25 mg/kg/injection, schedule: Q01DX009 (ip), vehicle: saline 100 % of control | [5] 105 % of control

O=c1c(Cl)c(Cl)c(=O)c2sc3cc(Cl)ccc3[nH]c1=2
inactive: [6] 98 % of control | [18] 102 % of control | [19] 101 % of control

CCN(CC)CCCC(C)Nc1cc(C)nc2ccc(N(C)C)cc12 (stereo not given)
inactive: dose: 15.0 mg/kg/injection, schedule: Q01DX005 (ip), vehicle: saline with Tween-80 108 % of control | dose: 30.0 mg/kg/injection, schedule: Q01DX005 (ip), vehicle: saline with Tween-80 105 % of control | [15] 100 % of control and 103 % of control

O=C(O)COc1cc2c(cc1Cc1ccc3c(c1)OCO3)OCO2
inactive: [14] 99 % of control | [20] 96 % of control | [21] 97 % of control

CC(=N)C(C#N)C(=S)SCCC#N (stereo not given)
inactive: [22] 97 % of control | [23] 89 % of control | [24] 106 % of control

CC(C)(C)OC(=O)NC(CCCCNC(=O)OCc1ccccc1)C(=O)O (stereo not given)
inactive: dose: 50.0 mg/kg/injection, schedule: Q01DX005 (ip), vehicle: distilled water + Tween-80 + alcohol 92 % of control | [1] 106 % of control | dose: 100.0 mg/kg/injection, schedule: Q01DX005 (ip), vehicle: distilled water + Tween-80 + alcohol 92 % of control | [2] 100 % of control | [3] 103 % of control

CCOC(=O)C1(C)C(=O)CC2c3nc4ccccc4cc3CN2C1=O (stereo not given)
inactive: [23] 95 % of control | [24] 95 % of control | dose: 400.0 mg/kg/injection, schedule: Q01DX009 (ip), vehicle: Klucel (hydroxypropylcellulose) (HPC) 104 % of control

COC(=O)CC(C)CC(=O)O (stereo not given)
inactive: [25] 100 % of control | [26] 107 % of control | dose: 200.0 mg/kg/injection, schedule: Q01DX009 (ip), vehicle: saline with Tween-80 100 % of control

CCN(CC)CCN1c2ccccc2Sc2ccc3ccccc3c21
inactive: dose: 50.0 mg/kg/injection, schedule: Q01DX005 (ip), vehicle: saline + Tween-80 + alcohol 107 % of control | dose: 100.0 mg/kg/injection, schedule: Q01DX005 (ip), vehicle: saline + Tween-80 + alcohol 105 % of control | dose: 200.0 mg/kg/injection, schedule: Q01DX005 (ip), vehicle: saline + Tween-80 + alcohol 102 % of control

O=S(=O)(O)C(F)(F)F
inactive: [7] 101 % of control | [8] 100 % of control | [9] 100 % of control

OCC(O)Cn1cnc2c(NO)ncnc21 (stereo not given)
inactive: dose: 60.0 mg/kg/injection, schedule: Q01DX005 (ip), vehicle: Klucel (hydroxypropylcellulose) (HPC) 101 % of control | dose: 120.0 mg/kg/injection, schedule: Q01DX005 (ip), vehicle: Klucel (hydroxypropylcellulose) (HPC) 95 % of control | dose: 240.0 mg/kg/injection, schedule: Q01DX005 (ip), vehicle: Klucel (hydroxypropylcellulose) (HPC) 100 % of control

Nc1ccc(-c2cc(O)ccc2N)cc1
inactive: dose: 25.0 mg/kg/injection, schedule: Q01DX009 (ip), vehicle: saline with Tween-80 100 % of control | [25] 117 % of control | [26] 110 % of control

C=CCOc1ccccc1/C(CC)=N/N(C)C
inactive: [6] 111 % of control | [18] 100 % of control

O=C(Nc1cccc2c1C(O)c1ccccc1-2)C(Cl)Cl (stereo not given)
inactive: [15] 97 % of control | [16] 98 % of control | [17] 104 % of control

C[C@@]12C[C@@H](Br)[C@H](Br)C[C@]1(C)O2
inactive: [4] 104 % of control | [10] 106 % of control | [11] 101 % of control

N=C(N)Sc1cc(Br)c[n+]([O-])c1
inactive: [14] 104 % of control | [20] 102 % of control | [21] 100 % of control

CSc1nc(-c2ccccc2)cc(=O)[nH]1
inactive: dose: 25.0 mg/kg/injection, schedule: Q01DX009 (ip), vehicle: Klucel (hydroxypropylcellulose) (HPC) 106 % of control | [22] 118 % of control | [6] 102 % of control | [23] 112 % of control | [18] 108 % of control | [24] 94 % of control | [19] 102 % of control

CCCCC1CCCCCCc2[nH]c(/C=C3\N=C(c4ccc[nH]4)C=C3OC)cc21 (stereo not given)
inactive: dose: 0.12 mg/kg/injection, schedule: Q01DX009 (ip), vehicle: saline with Tween-80 109 % of control and 116 % of control | dose: 0.25 mg/kg/injection, schedule: Q01DX009 (ip), vehicle: saline with Tween-80 110 % of control and 119 % of control | dose: 0.5 mg/kg/injection, schedule: Q01DX009 (ip), vehicle: saline with Tween-80 115 % of control and 123 % of control | dose: 1.0 mg/kg/injection, schedule: Q01DX009 (ip), vehicle: saline with Tween-80 111 % of control and 90 % of control

From PubChem BioAssay AID330 (DTP/NCI, 2004)
